# Test results taken from patent publication US11000033B2, “Ketone or oxime compound, and herbicide” (NISSAN CHEMICAL CORPORATION, priority 2014, dated 2021).
# Tests used:
# Format in all cases: in vivo
# [1] = test system: Echinochloa oryzacola Vasing.; assay: Test Example 1: herbicidal activity, application before weed generation in submerged conditions (symbol A); conditions: application herbicide amount 320 g/ha
# Outline: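 Steps: alluvial soil flooded to 4 cm; weed seeds sown together; rice seedlings (2.5 leaf) transplanted; diluted emulsion applied to water surface the same day as sowing; plants grown at 25–30 °C in greenhouse; herbicidal effect rated on a 0–5 scale at 3 weeks.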
# [2] = test system: Echinochloa crus-galli var. crus-galli; assay: Test Example 3: herbicidal effect by foliage application, Wagner pot (symbol H); conditions: application herbicide amount 320 g/ha
# Outline: (§1)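 Post-emergence, paddy-type test: seedlings 14 d old in shallow-flooded (0.1–0.5 cm) alluvial soil, 25–30 °C greenhouse. Emulsion diluted to target rate, sprayed on leaves. Read-out: visual effect on each species at 3 weeks, per set criteria.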
# Leptochloa chinensis = assay: Test Example 3: herbicidal effect by foliage application, Wagner pot (symbol D); conditions: application herbicide amount 320 g/ha
# Outline: as §1
# Digitaria ciliaris [3] = assay: Test Example 4: herbicidal effect by soil treatment (symbol F)
# Outline: (§2)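 Seeds were sown in sterilized diluvial soil, covered with about 1.5 cm of soil, and the soil surface was sprayed with a water-diluted emulsion of the compound at a predetermined rate. Plants grew in a greenhouse at 25° C. to 30° C.; effects were scored visually 3 weeks after application.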
# Setaria viridis [4] = assay: Test Example 4: herbicidal effect by soil treatment (symbol G)
# Outline: as §2
# Avena fatua = assay: Test Example 4: herbicidal effect by soil treatment (symbol I)
# Outline: as §2
# Alopecurus myosuroides = assay: Test Example 4: herbicidal effect by soil treatment (symbol J)
# Outline: as §2
# Amaranthus retroflexus = assay: Test Example 4: herbicidal effect by soil treatment (symbol N)
# Outline: as §2
# Veronica persica = assay: Test Example 4: herbicidal effect by soil treatment (symbol R)
# Outline: as §2
# rapeseed = assay: Test Example 4: effect on crop by soil treatment (symbol g); conditions: for g: rapeseed, effect on crop grade: application herbicide amount 320 g/ha
# Outline: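 Soil-treatment setup: crop and weed seeds were spot-sown into sterilized diluvial soil, then buried beneath approximately 1.5 cm of it, and the boxes were housed in a 25–30° C. greenhouse.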
# Digitaria ciliaris [5] = assay: Test Example 5: herbicidal effect by foliage application, plastic box (symbol F); conditions: 320 g/ha, 3 weeks after application
# Outline: (§3)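 Herbicide, formulated as an emulsion and diluted in water, is sprayed onto the aerial parts of 14-day seedlings. These were grown at 25° C. to 30° C. in sterilized diluvial soil; effects are graded after 3 weeks.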
# Setaria viridis [6] = assay: Test Example 5: herbicidal effect by foliage application, plastic box (symbol G); conditions: 320 g/ha, 3 weeks after application
# Outline: as §3
# Lolium multiflorum Lam. = assay: Test Example 5: herbicidal effect by foliage application, plastic box (symbol K); conditions: 320 g/ha, 3 weeks after application
# Outline: as §3
# Apera spica-venti = assay: Test Example 5: herbicidal effect by foliage application, plastic box (symbol L); conditions: 320 g/ha, 3 weeks after application
# Outline: as §3
# Abutilon theophrasti = assay: Test Example 5: herbicidal effect by foliage application, plastic box (symbol M); conditions: 320 g/ha, 3 weeks after application
# Outline: as §3
# Chenopodium album = assay: Test Example 5: herbicidal effect by foliage application, plastic box (symbol O); conditions: 320 g/ha, 3 weeks after application
# Outline: as §3
# Stellaria media = assay: Test Example 5: herbicidal effect by foliage application, plastic box (symbol P); conditions: 320 g/ha, 3 weeks after application
# Outline: as §3
# Galium spurium = assay: Test Example 5: herbicidal effect by foliage application, plastic box (symbol Q); conditions: 320 g/ha, 3 weeks after application
# Outline: as §3
# rice plant = assay: Test Example 5: effect on crop by foliage application, plastic box (symbol b); conditions: 320 g/ha, 3 weeks after application
# Outline: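 Box culture: sterile diluvial soil, seeds spot-sown, ~1.5 cm cover, raised under glass at 25–30° C.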
# [7] = application herbicide amount 320 g/ha
Compound,"Herbicidal effect grade, A: Echinochloa oryzacola Vasing. [1]","herbicidal effect on H (Echinochloa crus-galli var. crus-galli), grade 0-5 [2]","herbicidal effect on D (Leptochloa chinensis), grade 0-5 (Leptochloa chinensis)","F: Digitaria ciliaris, herbicidal effect grade (Digitaria ciliaris [3]; [7])","G: Setaria viridis, herbicidal effect grade (Setaria viridis [4]; [7])","I: Avena fatua, herbicidal effect grade (Avena fatua; [7])","J: Alopecurus myosuroides, herbicidal effect grade (Alopecurus myosuroides; [7])","N: Amaranthus retroflexus, herbicidal effect grade (Amaranthus retroflexus; [7])","R: Veronica persica, herbicidal effect grade (Veronica persica; [7])","g: rapeseed, effect on crop grade (rapeseed)","F: Digitaria ciliaris, herbicidal effect grade (Digitaria ciliaris [5])","G: Setaria viridis, herbicidal effect grade (Setaria viridis [6])","K: Lolium multiflorum Lam., herbicidal effect grade (Lolium multiflorum Lam.)","L: Apera spica-venti, herbicidal effect grade (Apera spica-venti)","M: Abutilon theophrasti, herbicidal effect grade (Abutilon theophrasti)","O: Chenopodium album, herbicidal effect grade (Chenopodium album)","P: Stellaria media, herbicidal effect grade (Stellaria media)","Q: Galium spurium, herbicidal effect grade (Galium spurium)","b: directly sowed rice plant, effect on crop grade (rice plant)",other results
CON=C(C)CC1CC(O)=C(c2c(C)cc(C#CCO)cc2C)C1=O (mixture of isomers) [6-025],2 (Herbicidal ratio of 20% or higher and lower than 40%),5 (Herbicidal ratio of 90% or more (almost completely withered)),5 (Herbicidal ratio of 90% or more (almost completely withered)),3 (Herbicidal ratio of 40% or higher and lower than 70%),4 (Herbicidal ratio of 70% or higher and lower than 90%),2 (Herbicidal ratio of 20% or higher and lower than 40%),2 (Herbicidal ratio of 20% or higher and lower than 40%),0 (Herbicidal ratio of 5% or lower (almost no effect)),0 (Herbicidal ratio of 5% or lower (almost no effect)),0 (Herbicidal ratio of 5% or lower (almost no effect)),4 (Herbicidal ratio of 70% or higher and lower than 90%),5 (Herbicidal ratio of 90% or more (almost completely withered)),5 (Herbicidal ratio of 90% or more (almost completely withered)),5 (Herbicidal ratio of 90% or more (almost completely withered)),0 (Herbicidal ratio of 5% or lower (almost no effect)),0 (Herbicidal ratio of 5% or lower (almost no effect)),0 (Herbicidal ratio of 5% or lower (almost no effect)),0 (Herbicidal ratio of 5% or lower (almost no effect)),5 (Herbicidal ratio of 90% or more (almost completely withered)),
CON=C(C)CC1CC(OC(=O)N(C)c2ccccc2)=C(c2c(C)cc(C)cc2C)C1=O (stereo not shown) [1-159],5 (Herbicidal ratio of 90% or more (almost completely withered)),4 (Herbicidal ratio of 70% or higher and lower than 90%),5 (Herbicidal ratio of 90% or more (almost completely withered)),,,,,,,,5 (Herbicidal ratio of 90% or more (almost completely withered)),1 (Herbicidal ratio of 5% or higher and lower than 20%),5 (Herbicidal ratio of 90% or more (almost completely withered)),5 (Herbicidal ratio of 90% or more (almost completely withered)),4 (Herbicidal ratio of 70% or higher and lower than 90%),0 (Herbicidal ratio of 5% or lower (almost no effect)),0 (Herbicidal ratio of 5% or lower (almost no effect)),0 (Herbicidal ratio of 5% or lower (almost no effect)),3 (Herbicidal ratio of 40% or higher and lower than 70%),"F: Digitaria ciliaris, herbicidal effect grade (Digitaria ciliaris [3]; 320 g/ha): 4 (Herbicidal ratio of 70% or higher and lower than 90%); G: Setaria viridis, herbicidal effect grade (Setaria viridis [4]; 320 g/ha): 3 (Herbicidal ratio of 40% or higher and lower than 70%); I: Avena fatua, herbicidal effect grade (Avena fatua; 320 g/ha): 0 (Herbicidal ratio of 5% or lower (almost no effect)); J: Alopecurus myosuroides, herbicidal effect grade (Alopecurus myosuroides; 320 g/ha): 4 (Herbicidal ratio of 70% or higher and lower than 90%); N: Amaranthus retroflexus, herbicidal effect grade (Amaranthus retroflexus; 320 g/ha): 0 (Herbicidal ratio of 5% or lower (almost no effect)); R: Veronica persica, herbicidal effect grade (Veronica persica; 320 g/ha): 0 (Herbicidal ratio of 5% or lower (almost no effect)); g: rapeseed, effect grade on crop (rapeseed; 320 g/ha): 0 (Herbicidal ratio of 5% or lower (almost no effect))"
COC(=O)C(C(=O)C1CC1)C1CC(O)=C(c2c(C)cc(C)cc2C)C1=O (stereo not shown) [2-014],4 (Herbicidal ratio of 70% or higher and lower than 90%),5 (Herbicidal ratio of 90% or more (almost completely withered)),4 (Herbicidal ratio of 70% or higher and lower than 90%),5 (Herbicidal ratio of 90% or more (almost completely withered)),5 (Herbicidal ratio of 90% or more (almost completely withered)),0 (Herbicidal ratio of 5% or lower (almost no effect)),2 (Herbicidal ratio of 20% or higher and lower than 40%),0 (Herbicidal ratio of 5% or lower (almost no effect)),0 (Herbicidal ratio of 5% or lower (almost no effect)),0 (Herbicidal ratio of 5% or lower (almost no effect)),3 (Herbicidal ratio of 40% or higher and lower than 70%),5 (Herbicidal ratio of 90% or more (almost completely withered)),5 (Herbicidal ratio of 90% or more (almost completely withered)),4 (Herbicidal ratio of 70% or higher and lower than 90%),3 (Herbicidal ratio of 40% or higher and lower than 70%),0 (Herbicidal ratio of 5% or lower (almost no effect)),0 (Herbicidal ratio of 5% or lower (almost no effect)),0 (Herbicidal ratio of 5% or lower (almost no effect)),5 (Herbicidal ratio of 90% or more (almost completely withered)),
CON=C(C)CC1CC(O)=C(c2c(C)cc(-c3cccc(Cl)c3)cc2C)C1=O (mixture of isomers) [6-034],5 (Herbicidal ratio of 90% or more (almost completely withered)),5 (Herbicidal ratio of 90% or more (almost completely withered)),5 (Herbicidal ratio of 90% or more (almost completely withered)),5 (Herbicidal ratio of 90% or more (almost completely withered)),5 (Herbicidal ratio of 90% or more (almost completely withered)),1 (Herbicidal ratio of 5% or higher and lower than 20%),5 (Herbicidal ratio of 90% or more (almost completely withered)),2 (Herbicidal ratio of 20% or higher and lower than 40%),4 (Herbicidal ratio of 70% or higher and lower than 90%),1 (Herbicidal ratio of 5% or higher and lower than 20%),5 (Herbicidal ratio of 90% or more (almost completely withered)),5 (Herbicidal ratio of 90% or more (almost completely withered)),4 (Herbicidal ratio of 70% or higher and lower than 90%),5 (Herbicidal ratio of 90% or more (almost completely withered)),3 (Herbicidal ratio of 40% or higher and lower than 70%),3 (Herbicidal ratio of 40% or higher and lower than 70%),3 (Herbicidal ratio of 40% or higher and lower than 70%),5 (Herbicidal ratio of 90% or more (almost completely withered)),5 (Herbicidal ratio of 90% or more (almost completely withered)),
